Test results: patent US20260240879A1, “TOPICAL PALA THERAPY FOR CANCER” (priority 2023, published 2026)

Columns and labels:
UVB-induced skin tumors = experiment: Immunostaining of excised skin tumors (cell cycle markers, antimicrobial peptides, immune cells); type: in vivo, SKH1-Elite mice
B16 melanoma = B16 melanoma orthotopic xenograft model; type: in vivo,  female mice
Procedure: FIG. 17: Topical PALA treatment retards melanoma growth and sensitizes melanoma to anti-checkpoint inhibitor therapy in a B16 melanoma orthotopic xenograft model. C57BU/6 female mice (n=4-5/group) were injected subcutaneously bilaterally with B16 melanoma cells (10^5 cells/flank; 8-10 injections total). Tumor volume was measured by caliper every 2-3 days by personnel blinded to treatment group. Data from palpable tumors are graphed as mean±SEM. […] On day 12 post-injection, mice were treated topically with either vehicle (AP0536/29/02) or 1% (w/w) PALA (AP0536/29/02) daily for 12 days. […] On day 7 post-injection, mice were treated topically with either vehicle (AP0536/29/02) or 2% (w/w) PALA (AP0536/29/02) daily for 5 days. Tumors were harvested on day 14 post-injection and tumor lysates analyzed by immunoblot for PD-L1 protein levels and quantified by image densitometry using ImageJ relative to tubulin levels (loading control). Mean±SEM graphed. C. […] On day 7 post-injection, mice were treated topically with either vehicle (AP0536/29/02) or 2% (w/w) PALA (AP0536/29/02) daily for 5 days. Mice were also treated with either isotype or anti-PD-L1/atezolizumab antibodies (100 μg/mouse) every 48 hours intraperitoneally from day 7 to day 19. Significant differences were determined by 2-way ANOVA with Dunnett's multiple comparison test. ***p<0.001

[1] = biological target: T1, aspartate transcarbamylase (Homo sapiens, UniProt P27708); experiment: Aspartate transcarbamylase activity in lysates of PALA-treated fibroblasts; type: cell-based; conditions: at doses that induce maximal immune stimulation, 16 h
T1 construct: endogenous in cells; host or cells: normal human dermal fibroblasts
T1 sequence (P27708 2-2225 limits assumed): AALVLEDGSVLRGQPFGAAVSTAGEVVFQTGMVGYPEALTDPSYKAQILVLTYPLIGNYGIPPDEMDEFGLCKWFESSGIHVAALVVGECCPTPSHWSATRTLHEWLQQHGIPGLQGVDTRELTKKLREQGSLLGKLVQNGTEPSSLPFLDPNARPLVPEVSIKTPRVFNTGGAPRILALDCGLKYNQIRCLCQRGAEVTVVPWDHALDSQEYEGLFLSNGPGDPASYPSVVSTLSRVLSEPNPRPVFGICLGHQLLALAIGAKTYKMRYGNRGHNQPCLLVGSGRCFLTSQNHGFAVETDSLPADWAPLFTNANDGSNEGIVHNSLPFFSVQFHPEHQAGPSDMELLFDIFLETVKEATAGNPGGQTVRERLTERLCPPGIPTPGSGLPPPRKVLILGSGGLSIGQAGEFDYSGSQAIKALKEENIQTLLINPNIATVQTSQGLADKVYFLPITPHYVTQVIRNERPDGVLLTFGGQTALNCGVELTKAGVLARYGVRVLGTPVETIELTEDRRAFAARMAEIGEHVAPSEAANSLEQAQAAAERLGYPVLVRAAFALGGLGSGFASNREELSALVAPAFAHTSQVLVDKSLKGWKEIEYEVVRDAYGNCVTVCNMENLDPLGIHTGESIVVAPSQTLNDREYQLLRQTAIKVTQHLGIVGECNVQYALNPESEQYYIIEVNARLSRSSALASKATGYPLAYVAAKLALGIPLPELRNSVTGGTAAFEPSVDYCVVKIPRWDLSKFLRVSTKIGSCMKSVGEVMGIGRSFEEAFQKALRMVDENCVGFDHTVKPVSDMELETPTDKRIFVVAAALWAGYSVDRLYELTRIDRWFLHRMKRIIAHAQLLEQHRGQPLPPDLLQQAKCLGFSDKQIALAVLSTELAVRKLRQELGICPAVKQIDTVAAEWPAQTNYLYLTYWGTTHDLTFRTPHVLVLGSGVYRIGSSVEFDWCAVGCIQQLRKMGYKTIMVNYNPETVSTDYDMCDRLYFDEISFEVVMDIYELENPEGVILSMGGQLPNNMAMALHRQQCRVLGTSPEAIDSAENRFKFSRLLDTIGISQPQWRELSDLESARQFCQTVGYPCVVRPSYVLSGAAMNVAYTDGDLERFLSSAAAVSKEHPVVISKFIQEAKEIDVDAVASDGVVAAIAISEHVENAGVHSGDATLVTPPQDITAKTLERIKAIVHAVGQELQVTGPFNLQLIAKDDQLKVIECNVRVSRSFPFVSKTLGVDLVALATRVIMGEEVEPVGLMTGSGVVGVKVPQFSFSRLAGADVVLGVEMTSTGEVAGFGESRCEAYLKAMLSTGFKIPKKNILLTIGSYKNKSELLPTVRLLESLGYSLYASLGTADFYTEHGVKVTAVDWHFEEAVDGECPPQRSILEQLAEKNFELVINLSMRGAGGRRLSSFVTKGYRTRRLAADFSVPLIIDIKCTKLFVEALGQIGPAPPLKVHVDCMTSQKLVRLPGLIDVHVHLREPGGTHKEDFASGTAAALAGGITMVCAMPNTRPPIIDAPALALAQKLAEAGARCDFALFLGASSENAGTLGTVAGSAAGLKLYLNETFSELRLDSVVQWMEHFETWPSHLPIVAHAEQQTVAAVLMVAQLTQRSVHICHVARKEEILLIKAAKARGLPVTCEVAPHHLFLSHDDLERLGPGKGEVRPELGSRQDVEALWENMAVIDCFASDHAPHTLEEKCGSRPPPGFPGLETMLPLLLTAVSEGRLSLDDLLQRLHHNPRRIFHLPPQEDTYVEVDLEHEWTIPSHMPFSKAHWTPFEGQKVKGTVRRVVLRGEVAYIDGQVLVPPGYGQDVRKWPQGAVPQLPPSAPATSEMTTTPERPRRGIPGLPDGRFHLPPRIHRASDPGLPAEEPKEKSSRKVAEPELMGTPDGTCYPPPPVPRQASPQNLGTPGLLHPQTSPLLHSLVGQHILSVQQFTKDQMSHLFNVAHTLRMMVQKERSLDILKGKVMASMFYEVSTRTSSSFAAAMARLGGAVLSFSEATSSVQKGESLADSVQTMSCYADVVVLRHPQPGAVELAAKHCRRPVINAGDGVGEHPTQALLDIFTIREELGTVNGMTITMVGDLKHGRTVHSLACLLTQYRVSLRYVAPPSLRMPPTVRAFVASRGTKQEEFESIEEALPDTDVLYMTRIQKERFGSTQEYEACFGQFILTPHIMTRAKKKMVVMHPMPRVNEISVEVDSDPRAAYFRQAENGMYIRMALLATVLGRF
Procedure: A. Bactericidal activity of normal human dermal fibroblasts stimulated by PALA treatment. Cells stimulated for 16 h with the indicated concentration of PALA. Conditioned supernatants added to log phase cultures of methicillin-resistant Staphylococcus aureus (MRSA) for 2 h and viable bacterial determined by selective plating. Mean±SD graphed. B. PALA-stimulated production of antimicrobial peptides in normal human dermal fibroblasts. Cells were stimulated as in A. and supernatants assayed by ELISA for human β-defensin 2 (HBD2) and human β-defensin 3 (HBD3). Mean±SD graphed. C. […] Cell lysates from the cells shown in A. were assayed for their ability to catalyze the formation of carbamyl aspartate (CA) in vitro. Percent change in CA levels graphed; mean±SD. […] D. Average number of tumors per mouse at the end of the treatment period (mean±SEM graphed). D. Mice treated for 10 weeks with vehicle (Aquaphor), 1%, 2%, or 5% PALA in Aquaphor. E. Mice treated for 4 weeks with vehicle (AP0536/29/02), 2% (w/w) PALA (AP0536/29/02), or 4% (w/w) PALA (AP0536/29/02).

[2] = system: cytokines and chemokines in treated skin; conditions: mouse, in vivo
Procedure: The topical formulations of 2% PALA/50% acetone/10% glycerol, 5% imiquimod (IMQ), 5% 5-FU (5-FU), vehicle (50% acetone/10% glycerol) control, and Aquaphor were applied (~0.05 g/mouse) daily to the dorsal skin of SKH1-Elite female mice (8 weeks of age; n=5/group) for 7 days. […] Mice were monitored daily for weight change, skin appearance, and signs of distress.
Skin protein lysates were made by homogenizing frozen tissue with a pestle and scissors in RIPA buffer (50 mM Tris, pH8, 150 mM NaCl, 0.5% sodium deoxycholate, 1% NP-40, 0.1% sodium dodecyl sulfate, lx Pierce protease inhibitor cocktail (A32965, ThermoFisher)). Cytokines and chemokines were quantified from 25 μg of lysate using a custom 10-plex U-PLEX panel (K15069L-2; Meso Scale Discovery) that included: GM-CSF, KC/CXCL1, IFNα, IFNβ, IFNγ, IL-10, IL-6, IL-12p70, IL-17A, IL-17C, IL-17F, IP-10/CXCL10, MCP-1/CCL2, RANTES/CCL5, and TNFα. The MESO SECTOR S 600 plate reader (ICOAA-0; Meso Scale Discovery) was used to collect the U-Plex data and data was analyzed using MSD Discovery Workbench 4.0 software.

[3] = system: UVB-induced NMSC (AK lesions and SCC tumors); experiment: UVB-induced NMSC mouse model: tumor number, area, growth phenotype and grade; conditions: for total tumors at endpoint: vehicle 12.5±2.4
[4] = 2% (w/w) PALA (AP0536/29/02), daily, 4 weeks
[5] = individual tumors, PALA n = 48, vehicle 7.3%

## O=C(O)CC(NC(=O)CP(=O)(O)O)C(=O)O [PALA, N-phosphonacetyl-L-aspartate]
UVB-induced skin tumors; PALA compared to vehicle-treated controls
  CD8+ cytotoxic T cells in tumors: elevated numbers
UVB-induced skin tumors; PALA relative to vehicle-treated controls
  F4/80+ macrophages in tumors: increased numbers
UVB-induced skin tumors; PALA vs vehicle
  LL-37+ cells in tumor samples: significantly increased
  numbers of MPO+ cells (neutrophils) in tumors: the same
  overall number of CD3+ T cells within tumor tissue: the same
  total area of DefB14 staining within tumors: not different
UVB-induced skin tumors; excised tumors, 2% PALA, vehicle 3.1%, p=0.0067
  phospho-histone H3+ cells: 4.9%
UVB-induced skin tumors; excised tumors, 2% PALA, vehicle 10.4%, p=0.005
  Ki67+ cells per tumor: 24.6%
UVB-induced skin tumors; excised tumors, 2% PALA, vehicle 48.9%, p=0.0329
  cyclin D1+ cells per tumor: 39.4%
UVB-induced skin tumors; excised tumors, PALA vs vehicle
  cyclin B1+ or cyclin A2+ cell populations: No differences
B16 melanoma; 1% (w/w) PALA (AP0536/29/02), topical daily for 12 days from day 12 post-injection
  tumor growth (tumor volume): retards tumor growth
B16 melanoma; 2% (w/w) PALA (AP0536/29/02), topical daily for 5 days
  PD-L1 protein levels in tumor lysates: reduces expression of the checkpoint inhibitor PD-L1
B16 melanoma; 2% (w/w) PALA daily for 5 days plus anti-PD-L1/atezolizumab 100 μg/mouse i.p. every 48 hours
  response to anti-PD-L1 therapy: sensitizes B16 melanoma to anti-PD-L1 therapy
[1]
  reduction of aspartate transcarbamylase enzyme activity (carbamyl aspartate formation): ~ 25%
[2]
  GM-CSF, Mean (SEM): 1.0 (0.1)
  IL-6, Mean (SEM): 38.8 (8.1)
  IL-17A, Mean (SEM): 0.5 (0.09)
  IL-17C, Mean (SEM): 0.6 (0.1)
  KC, Mean (SEM): 31.1 (2.8)
  RANTES, Mean (SEM): 46.4 (9.6)
  expression of inflammatory cytokine/chemokine panel in treated skin (in words): no changes
[3]; 1% PALA in 50% acetone/10% glycerol, daily topical, 10 weeks
  total tumors at endpoint: 11.7±3.8
[3]; 1% PALA, daily topical, 10 weeks, vehicle 286.4%±62.6
  average tumor burden, % of original size at endpoint: 275.0%±84.7
[3]; 1%, 2%, 5% PALA in Aquaphor 10 weeks, 4% (w/w) PALA 4 weeks
  shape of dose-response, average number of tumors per mouse at end of treatment: U-shaped dose-response curves
[3]; [4]
  growth profile of individual tumors: lower percentage of continually growing tumors
  mean tumor surface area per tumor (average tumor size): significantly smaller average tumor size than either vehicle or 5% IMQ treated mice
[3]; 2% (w/w) PALA (AP0536/29/02), daily, 4 weeks, vs vehicle or 5% IMQ
  endpoint tumor grade: fewer squamous cell carcinoma (SCC) and SCC in situ tumors
[3]; 2% PALA in 50% acetone/10% glycerol, daily topical, 10 weeks
  total tumors at endpoint: 3.83±0.6
[3]; 2% PALA or 5% IMQ, daily, 4 weeks
  tumor levels of interleukin-1β: elevated
[3]; 2% PALA, daily topical, 10 weeks, vehicle 4.4, p=0.003
  mean tumor cross-sectional area, endpoint value: 2.4 mm^2
[3]; 2% PALA, daily topical, 10 weeks, vehicle 197.1, p<0.0001
  mean surface tumor area, endpoint value: 30.3 mm^2
[3]; 2% PALA, daily topical, 10 weeks, vehicle 286.4%±62.6, 252.3%±34.3
  average tumor burden, % of original size at endpoint: 99.2%±20.5
[3]; 2% PALA, daily, 4 weeks, compared with 5% IMQ
  tumor levels of interferon-al: elevated only in 2% PALA treated mice
[3]; 5% PALA in 50% acetone/10% glycerol, daily topical, 10 weeks
  total tumors at endpoint: 6.20±1.8
[3]; 5% PALA, daily topical, 10 weeks, vehicle 286.4%±62.6
  average tumor burden, % of original size at endpoint: 91.6%±13.4
[3]; 10 weeks of daily topical treatment
  concentrations demonstrating anti-tumor activity: ≥ 2%
[3]; PALA treated tumors, 10 weeks
  tumors shrinking after an initial period of growth or continually reducing in size: 97.9%
[3]; PALA-treated mice, vehicle 31%, p<0.001
  proportion of AK/SCC in situ and benign lesions: 62%
[3]; PALA-treated mice, vehicle 69%, p<0.0001
  prevalence of well differentiated SCC and poorly differentiated SCC: 38%
[3]; excised tumors, 2% PALA daily 10 weeks, vehicle 25
  Total Tumor Number: Poorly Differentiated SCC: 6
[3]; excised tumors, vehicle 0
  Total Tumor Number: Benign/ Hyperplastic: 8
[3]; excised tumors, vehicle 28
  Total Tumor Number: AK/SCC in situ: 23
[3]; excised tumors, vehicle 37
  Total Tumor Number: Well Differentiated SCC: 12
[3]; [5]
  Tumor Growth Outcome: Same, %: 0 (0%)
  Tumor Growth Outcome: Smaller, %: 4.1%
  Tumor Growth Phenotype: No Change, %: 0 (0%)
[3]; individual tumors, PALA n = 48, vehicle 17.0%
  Tumor Growth Phenotype: Continual Shrinkage, %: 29.1%
[3]; individual tumors, PALA n = 48, vehicle 26.8%
  Tumor Growth Outcome: Resolved, %: 83.3%
[3]; individual tumors, PALA n = 48, vehicle 29.2%
  Tumor Growth Phenotype: Grow then Shrink, %: 68.7%
[3]; individual tumors, PALA n = 48, vehicle 46.3%
  Tumor Growth Phenotype: Continual Growth, %: 2.0%
[3]; individual tumors, PALA n = 48, vehicle 58.5%
  Tumor Growth Outcome: Larger, %: 12.5%
[3]; reformulated 2% (w/v) PALA (AP0536/29/02), daily, 6 weeks
  tumor burden and total tumor area: effective in reducing tumor burden and total tumor area
[3]; vehicle 0%
  Tumor Prevalence: Benign/ Hyperplastic: 13%
[3]; vehicle 0 (0)
  Tumor Area: Benign/ Hyperplastic, mean (SEM): 1.4 (0.3)
  Tumors / Mouse: Benign/ Hyperplastic, mean (SEM): 0.5 (0.6)
[3]; vehicle 1.5 (0.7)
  Tumor Cross Sectional Area: AK/SCC in situ, mean (SEM): 1.1 (1.0) mm^2
[3]; vehicle 2.0 (1.6)
  Tumors / Mouse: Poorly Differentiated SCC, mean (SEM): 0.5 (0.9)
[3]; vehicle 2.3 (2.1)
  Tumors / Mouse: AK/SCC in situ, mean (SEM): 1.9 (1.2)
[3]; vehicle 3.0 (1.8)
  Tumors / Mouse: Well Differentiated SCC, mean (SEM): 1.0 (1.1)
[3]; vehicle 3.4 (6.6)
  Tumor Area: AK/SCC in situ, mean (SEM): 2.3 (2.0)
[3]; vehicle 3.7 (2.0)
  Tumor Cross Sectional Area: Well Differentiated SCC, mean (SEM): 3.1 (2.2) mm^2
[3]; vehicle 9.2 (5.8)
  Tumor Cross Sectional Area: Poorly Differentiated SCC, mean (SEM): 9.8 (6.4) mm^2
[3]; vehicle 10.7 (18.0)
  Tumor Area: Well Differentiated SCC, mean (SEM): 7.5 (4.5)
[3]; vehicle 28%
  Tumor Prevalence: Poorly Differentiated SCC: 13%
[3]; vehicle 31%
  Tumor Prevalence: AK/SCC in situ: 49%
[3]; vehicle 41%
  Tumor Prevalence: Well Differentiated SCC: 25%
[3]; vehicle 59.5 (77.3)
  Tumor Area: Poorly Differentiated SCC, mean (SEM): 62.6 (70.0)
[3]; vehicle n/a
  Tumor Cross Sectional Area: Benign/ Hyperplastic, mean (SEM): 1.7 (2.0) mm^2
